Measured values: ChEMBL document CHEMBL4428063, “Novel Pyrimidine Toll-like Receptor 7 and 8 Dual Agonists to Treat Hepatitis B Virus” (J Med Chem, 2016)
Activity calls are given as the source filed them. The rule behind the calls is not given here.

What was measured:
[1] = Cmax in cynomolgus monkey plasma at 30 mg/kg, administered through oral gavage measured after 24 hrs; format: ADME, organism-based, Macaca fascicularis; parameters: dose 30 mg/kg, route oral
[2] = target: T1, Toll-like receptor 9 (Homo sapiens) (UniProt Q9NR96); assay: Agonist activity at wild-type human TLR9 expressed in HEK293 cells up to 25 uM measured after 6 hrs by NF-kappaB luciferase reporter gene assay; format: cell-based
T1 sequence (whole entry): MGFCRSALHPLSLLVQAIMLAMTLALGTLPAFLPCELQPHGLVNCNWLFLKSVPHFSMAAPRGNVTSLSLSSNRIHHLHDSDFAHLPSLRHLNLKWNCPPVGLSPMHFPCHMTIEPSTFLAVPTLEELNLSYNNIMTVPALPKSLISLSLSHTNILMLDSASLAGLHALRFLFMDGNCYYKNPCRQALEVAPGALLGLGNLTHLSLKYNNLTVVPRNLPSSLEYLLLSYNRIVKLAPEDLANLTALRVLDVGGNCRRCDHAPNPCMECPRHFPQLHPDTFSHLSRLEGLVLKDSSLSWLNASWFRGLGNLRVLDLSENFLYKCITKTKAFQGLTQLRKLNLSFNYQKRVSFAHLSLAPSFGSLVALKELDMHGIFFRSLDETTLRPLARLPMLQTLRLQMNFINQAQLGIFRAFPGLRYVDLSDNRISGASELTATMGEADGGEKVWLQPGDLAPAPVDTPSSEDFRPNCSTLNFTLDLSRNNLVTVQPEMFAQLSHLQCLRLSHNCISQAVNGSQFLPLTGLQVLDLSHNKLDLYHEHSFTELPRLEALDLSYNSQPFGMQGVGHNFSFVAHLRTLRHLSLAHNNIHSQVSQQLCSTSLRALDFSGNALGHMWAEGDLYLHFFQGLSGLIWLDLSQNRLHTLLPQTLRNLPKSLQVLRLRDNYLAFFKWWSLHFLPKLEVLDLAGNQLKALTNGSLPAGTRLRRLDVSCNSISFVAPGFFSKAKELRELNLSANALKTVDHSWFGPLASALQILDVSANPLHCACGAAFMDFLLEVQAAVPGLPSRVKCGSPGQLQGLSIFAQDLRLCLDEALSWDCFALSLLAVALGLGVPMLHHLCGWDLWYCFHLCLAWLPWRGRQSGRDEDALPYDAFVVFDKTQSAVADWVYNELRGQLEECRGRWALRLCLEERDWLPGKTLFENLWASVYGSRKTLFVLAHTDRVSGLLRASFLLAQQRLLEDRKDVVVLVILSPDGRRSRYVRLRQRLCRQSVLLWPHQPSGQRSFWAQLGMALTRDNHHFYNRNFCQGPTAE

human MDR1 = assay: Apparent permeability across apical to basolateral side in MDCK cells expressing human MDR1 at 1 uM by LC-MS/MS analysis; format: ADME, cell-based, Canis lupus familiaris; conditions: dog
[3] = target: T2, Toll-like receptor 1 (Homo sapiens) (UniProt Q15399); assay: Agonist activity at wild-type human TLR1 expressed in HEK293 cells up to 25 uM measured after 6 hrs by NF-kappaB luciferase reporter gene assay; format: cell-based
T2 sequence (whole entry): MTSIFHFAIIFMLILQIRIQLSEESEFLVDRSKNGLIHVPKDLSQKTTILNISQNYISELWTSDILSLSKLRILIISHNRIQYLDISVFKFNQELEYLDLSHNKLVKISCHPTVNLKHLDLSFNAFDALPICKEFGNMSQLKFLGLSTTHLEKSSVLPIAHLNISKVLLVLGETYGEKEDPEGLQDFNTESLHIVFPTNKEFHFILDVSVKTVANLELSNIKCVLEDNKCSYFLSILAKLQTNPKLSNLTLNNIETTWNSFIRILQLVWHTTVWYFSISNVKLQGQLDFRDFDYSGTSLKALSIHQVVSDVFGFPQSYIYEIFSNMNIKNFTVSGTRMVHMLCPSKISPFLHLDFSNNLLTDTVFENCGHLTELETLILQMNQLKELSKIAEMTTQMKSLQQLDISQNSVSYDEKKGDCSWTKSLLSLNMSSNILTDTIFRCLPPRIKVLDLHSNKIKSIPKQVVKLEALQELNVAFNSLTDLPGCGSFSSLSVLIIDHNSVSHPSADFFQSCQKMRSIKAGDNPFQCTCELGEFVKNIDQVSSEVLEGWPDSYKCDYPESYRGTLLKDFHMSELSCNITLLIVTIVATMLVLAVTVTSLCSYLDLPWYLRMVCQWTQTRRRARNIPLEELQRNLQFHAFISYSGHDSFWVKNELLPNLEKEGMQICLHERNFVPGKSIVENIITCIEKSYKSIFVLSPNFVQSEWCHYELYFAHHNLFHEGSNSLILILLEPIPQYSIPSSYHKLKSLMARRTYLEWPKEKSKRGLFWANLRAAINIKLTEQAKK

[4] = Cmax in Sprague-Dawley rat plasma at 10 mg/kg, po; format: ADME, organism-based; parameters: dose 10 mg/kg, route oral
[5] = target: T3, Toll-like receptor 8 (Homo sapiens) (UniProt Q9NR97); assay: Agonist activity at human TLR8 expressed in HEK293 cells assessed as measured after 6 hrs by NF-kappaB luciferase reporter gene assay; format: cell-based
T3 sequence (whole entry): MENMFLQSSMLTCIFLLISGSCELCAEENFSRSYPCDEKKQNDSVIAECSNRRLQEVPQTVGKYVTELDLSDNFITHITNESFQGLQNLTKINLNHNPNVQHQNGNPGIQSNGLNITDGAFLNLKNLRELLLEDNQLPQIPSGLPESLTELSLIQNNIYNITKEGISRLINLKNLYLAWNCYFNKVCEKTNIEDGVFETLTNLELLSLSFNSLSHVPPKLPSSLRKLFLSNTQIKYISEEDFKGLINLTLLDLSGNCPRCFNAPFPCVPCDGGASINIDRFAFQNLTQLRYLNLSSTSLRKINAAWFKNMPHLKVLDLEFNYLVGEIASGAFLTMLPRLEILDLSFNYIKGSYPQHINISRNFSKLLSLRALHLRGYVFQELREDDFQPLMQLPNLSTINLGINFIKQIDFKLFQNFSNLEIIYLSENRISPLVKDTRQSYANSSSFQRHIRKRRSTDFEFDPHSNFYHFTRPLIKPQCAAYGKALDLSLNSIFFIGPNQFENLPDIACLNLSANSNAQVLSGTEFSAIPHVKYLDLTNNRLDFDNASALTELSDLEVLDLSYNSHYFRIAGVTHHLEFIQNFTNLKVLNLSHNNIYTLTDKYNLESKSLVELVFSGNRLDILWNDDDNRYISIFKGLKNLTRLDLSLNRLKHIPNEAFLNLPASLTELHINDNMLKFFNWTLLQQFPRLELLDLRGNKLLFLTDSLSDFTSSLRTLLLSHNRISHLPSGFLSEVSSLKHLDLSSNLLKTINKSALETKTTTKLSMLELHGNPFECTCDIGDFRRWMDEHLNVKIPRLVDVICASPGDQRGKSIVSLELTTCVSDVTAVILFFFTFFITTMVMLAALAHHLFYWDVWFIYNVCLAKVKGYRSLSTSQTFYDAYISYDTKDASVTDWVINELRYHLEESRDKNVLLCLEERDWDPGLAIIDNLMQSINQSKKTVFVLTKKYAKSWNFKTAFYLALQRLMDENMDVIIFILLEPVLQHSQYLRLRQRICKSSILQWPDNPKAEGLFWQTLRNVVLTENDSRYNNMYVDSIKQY

CCCC[C@@H](CCO)Nc1nc(N)ncc1OC
Cmax [1]: 355 ng/mL
Activity [2]: inactive
Papp A→B at 1 µM (human MDR1): 23 ×10⁻⁶ cm/s
Activity [3]: inactive
Cmax [4]: 65 ng/mL
LED [5]: 1.6 µM
